Reference: patent US20160137639A1, “TRIAZOLE-ISOXAZOLE COMPOUND AND MEDICAL USE THEREOF” (JAPAN TOBACCO INC., priority 2012, published 2016)
pEC50: −log10 of the molar value. Read-outs that look alike come from different tables or passages of the source.

Columns and labels:
mouse RORγ = target: T1, mouse RORγ (Mus musculus, UniProt P51450); experiment: Luciferase reporter gene assay of inhibitory effect against RORγ transcriptional activity (GAL4-mRORγ plasmid in CHO cells); assay type: cell-based; conditions: for EC50: read-out: LUC EC50 (μM) mRORg; for pEC50: read-out: LUC EC50 mRORg
T1 construct: mouse, NM_011281.2 and from Ile251 to Lys516; expressed in transfected cells; host or cells: CHO cells (transient co-transfection with pG5-Luc reporter)
T1 sequence (P51450 251-516): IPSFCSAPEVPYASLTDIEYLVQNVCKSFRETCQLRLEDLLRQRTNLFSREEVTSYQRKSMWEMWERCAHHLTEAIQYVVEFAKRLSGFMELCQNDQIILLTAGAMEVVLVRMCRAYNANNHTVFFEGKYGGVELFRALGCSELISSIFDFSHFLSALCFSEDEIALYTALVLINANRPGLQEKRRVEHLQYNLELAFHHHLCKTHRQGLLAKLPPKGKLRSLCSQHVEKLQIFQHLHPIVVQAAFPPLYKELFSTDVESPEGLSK
Outline: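 Readout is intracellular luciferase after 2-day compound exposure (8 concentrations, 0.1% DMSO) in CHO cells expressing GAL4 fused to mouse RORγ LBD residues Ile251–Lys516 plus pG5-Luc reporter. EC50 fitted from %-of-control; points showing resazurin-detected cytotoxicity dropped.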

human RORγ = target: T2, human RORγ (Homo sapiens, UniProt P51449); experiment: Luciferase reporter gene assay of inhibitory effect against RORγ transcriptional activity (GAL4-hRORγ plasmid in CHO cells); assay type: cell-based; conditions: for EC50: read-out: LUC EC50 (μM) hRORg; for pEC50: read-out: LUC EC50 hRORg
T2 construct: human, NM_005060.3 and from Ser253 to Lys518; expressed in transfected cells; host or cells: CHO cells (transient co-transfection with pG5-Luc reporter)
T2 sequence (P51449 253-518): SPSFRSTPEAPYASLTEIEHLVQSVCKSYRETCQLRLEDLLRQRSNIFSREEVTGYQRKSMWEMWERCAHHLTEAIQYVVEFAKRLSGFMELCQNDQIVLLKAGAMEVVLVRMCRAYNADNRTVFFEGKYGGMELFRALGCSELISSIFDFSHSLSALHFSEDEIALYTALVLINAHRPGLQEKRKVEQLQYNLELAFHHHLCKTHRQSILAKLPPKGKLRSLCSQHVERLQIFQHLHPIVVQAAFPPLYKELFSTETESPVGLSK

| Compound | EC50 (mouse RORγ) [µM] | EC50 (human RORγ) [µM] | pEC50 (mouse RORγ) | pEC50 (human RORγ) |
| --- | --- | --- | --- | --- |
| Cc1ccc(C(N)=O)cc1NC(=O)CCc1nnc(CCC(C)C)n1C1CC1 [Example F-154] | > 3 | > 3 |  |  |
| Cc1ccc(NC(=O)C[C@H](C[C@@H](C)O)c2nnc([C@H]3C[C@@H](CC(C)C)C3)n2C2CC2)c(C)c1 [Example F-560] |  |  | > 5.52 | > 5.52 |
| CCn1c(CCC(=O)NCc2cccc(C)c2)nnc1CCC1CCCCC1 [Example F-42] | > 3 | > 3 |  |  |
| CC(C)CCc1nnc(CCC(=O)NC2CCCCC2C)n1C1CC1 (stereo not drawn) [Example F-102] | > 3 | > 3 |  |  |
| Cc1ccc(NC(=O)C[C@H](CCO)c2nnc(-c3cc(CC(C)(C)C)on3)n2C2CC2)c(C)c1 [Example F-612] |  |  | > 5.52 | > 5.52 |
| COC(=O)C(C)(C)CCc1nnc(CCC(=O)Nc2cccc(Cl)c2C)n1C1CC1 [Example F-210] | < 3 | < 3 |  |  |
| CC(C)(C)Cc1cc(-c2onc([C@H](CCC(=O)O)CC(=O)Nc3ccc(Cl)cc3Cl)c2C2CC2)no1 [Example E-79] |  |  | > 5.52 | > 5.52 |
| Cc1ccc(NC(=O)CCc2nnc([C@H]3C[C@@H](CC4CCCC4)C3)n2C2CC2)c(C)c1 [Example F-424] | < 3 | < 3 |  |  |
| Cc1c(Cl)cccc1NC(=O)CCc1nnc(C(O)CC(C)C)n1C1CC1 (racemic) [Example F-182] | < 3 | > 3 |  |  |
| Cc1ccc(NC(=O)[C@H]2CN(S(=O)(=O)C(C)C)C[C@@H]2c2nnc([C@H]3C[C@@H](CC(C)(C)C)C3)n2C2CC2)c(C)c1 [Example F-552] |  |  | > 5.52 | > 5.52 |
| CC(=O)N1C[C@H](C(=O)Nc2ccc(C)cc2C)[C@@H](c2nnc(C(O)CCC(C)(C)C)n2C2CC2)C1 (single isomer, unassigned) [Example F-348] | > 3 | > 3 |  |  |
| CNC(=O)[C@H]1CC[C@H](CCc2nnc(CCC(=O)Nc3cccc(Cl)c3C)n2C2CC2)CC1 [Example F-255] | > 3 | > 3 |  |  |
| Cc1ccc(NC(=O)C[C@H](CC(C)(C)O)c2nnc([C@H]3C[C@@H](CC(C)C)C3)n2C2CC2)c(C)c1 [Example F-599] |  |  | > 5.52 | > 5.52 |
| CC(C)CCc1nnc(CCC(=O)Nc2cccc3ccccc23)n1C1CC1 [Example F-81] | < 3 | < 3 |  |  |
| CNC(=O)CC(CC(=O)Nc1ccc(C)cc1C)c1nnc(CCCC(C)C)n1C1CC1 (racemic) [Example F-265] | < 3 | > 3 |  |  |
| CC(C)CCc1nnc(CCC(=O)Nc2cccc(Cl)c2F)n1C1CC1 [Example F-100] | > 3 | > 3 |  |  |
| CCCC(CCC)NC(=O)CCc1nnc(C2Cc3ccccc3C2)n1CC [Example F-28] | > 3 | > 3 |  |  |
| Cc1c(Cl)cccc1NC(=O)CCc1nnc(CC(C)C(C)C)n1C1CC1 (racemic) [Example F-117] | < 3 | > 3 |  |  |
| Cc1ccc(NC(=O)CC(CO)c2nnc(CCCC(C)C)n2C2CC2)c(C)c1 (racemic) [Example F-271] | < 3 | < 3 |  |  |
| Cc1ccc(NC(=O)CC(Cc2ccccc2)c2nnc(CCCC(C)(C)C)n2C2CC2)c(C)c1 (racemic) [Example F-436] | < 3 | < 3 |  |  |
| Cc1ccncc1NC(=O)CCc1nnc(CCC(C)C)n1C1CC1 [Example F-90] | > 3 | > 3 |  |  |
| Cc1ccc(NC(=O)C[C@H](CC(C)C)c2nnc([C@H]3C[C@@H](CC(C)C)C3)n2C2CC2)c(C)c1 [Example F-590] |  |  | > 5.52 | > 5.52 |
| Cc1ccc(NC(=O)C[C@@H](CCO)c2nnc(CCCC(C)(C)C)n2CC(F)(F)F)c(C)c1 [Example F-379] | < 3 | > 3 |  |  |
| Cc1ccc(NC(=O)CCc2noc(C3(CC(=O)O)CC(CC(C)(C)C)C3)c2C2CC2)c(Cl)c1 (mixture of isomers) [Example F-743] |  |  | < 5.52 | < 5.52 |

| Compound | EC50 (mouse RORγ) [µM] | EC50 (human RORγ) [µM] | pEC50 (mouse RORγ) | pEC50 (human RORγ) |
| --- | --- | --- | --- | --- |
| CCOC(=O)/C=C/c1c(CCC(=O)Nc2ccc(C)cc2C)noc1[C@H]1C[C@@H](CC(C)C)C1 [Example F-645] |  |  | < 5.52 | < 5.52 |
| Cc1ccc(NC(=O)CC(CCOC(=O)N(C)C)c2nnc([C@H]3C[C@@H](CC(C)C)C3)n2C2CC2)c(C)c1 (mixture of isomers) [Example F-484] | < 3 | < 3 |  |  |
| CC(C)(C)C(F)(F)c1cc(-c2onc([C@@H](CCC(=O)O)CC(=O)Nc3ccc(F)cc3Cl)c2C2CC2)no1 [Example E-48] | < 3 | < 3 |  |  |
| Cc1ccc(NC(=O)CCc2noc(C34CC5CC(CC(C5)C3)C4)c2C2CC2)c(Cl)c1 [Example F-734] |  |  | > 5.52 | > 5.52 |
| Cc1ccccc1CCNC(=O)CCc1nnc(CCC(C)C)n1C1CC1 [Example F-116] | > 3 | > 3 |  |  |
| Cc1ccc(NC(=O)C[C@H](CCC(=O)O)c2noc(-c3cc(C4CC(C)(C)C4)on3)c2C2CC2)c(Cl)c1 [Example E-30] | < 3 | < 3 |  |  |
| CC(=O)N(CCc1nnc(CCC(=O)Nc2cccc(Cl)c2C)n1C1CC1)C(C)C [Example F-233] | > 3 | > 3 |  |  |
| CCc1cccc(NC(=O)CCc2nnc(CCC(C)C)n2C2CC2)c1C [Example F-147] | < 3 | > 3 |  |  |
| Cc1ccc(NC(=O)C[C@H](CCC(=O)O)c2nnn([C@H]3C[C@@H](CC(C)(C)C(C)C)C3)c2C(F)(F)F)c(F)c1 [Example F-707] |  |  | > 5.52 | > 5.52 |
| CCCC(CC(=O)Nc1cccc(Cl)c1C)c1nnc(CCC(C)C)n1C1CC1 (racemic) [Example F-194] | < 3 | < 3 |  |  |
| Cc1cc(Cl)ccc1NC(=O)C[C@H](CC(C)C)c1nnc(-c2cc(CC(C)C)on2)n1C1CC1 [Example F-606] |  |  | > 5.52 | > 5.52 |
| Cc1ccc(NC(=O)[C@H]2CCC(=O)N(C)[C@@H]2c2nnc(CCCC(C)(C)C)n2C2CC2)c(C)c1 [Example F-322] | < 3 | < 3 |  |  |
| Cc1ccc(NC(=O)CCc2nnc(CCC3CCCCC3)n2C2CC2(F)F)c(C)c1 (racemic) [Example F-211] | < 3 | < 3 |  |  |
| Cc1ccc(NC(=O)[C@@H](CCC(=O)O)Cc2noc([C@H]3C[C@@H](CC(C)C)C3)c2C2CC2)c(C)c1 [Example F-671] |  |  | > 5.52 | > 5.52 |
| CC1(C(F)(F)c2cc(-c3onc([C@@H](CCC(=O)O)CC(=O)Nc4ccc(Cl)cc4F)c3C3CC3)no2)CC1 [Example E-67] | < 3 | < 3 |  |  |
| COC1C[C@H](C(=O)Nc2ccc(C)cc2C)[C@@H](c2nnc([C@H]3C[C@@H](CC(C)C)C3)n2C2CC2)C1 (single isomer, unassigned) [Example F-556] |  |  | > 5.52 | > 5.52 |
| Cc1ccc(NC(=O)C[C@@H](CCO)c2nnc(CCCC(C)(C)C)n2C2CC2)c(C)c1 [Example F-326] | > 3 | > 3 |  |  |
| CC(=O)N1C[C@H](C(=O)Nc2ccc(C)cc2C)[C@@H](c2nnc(CCC3CCCCC3)n2C2CC2)C1 [Example F-402] | < 3 | < 3 |  |  |
| Cc1ccc(NC(=O)CC(CC(=O)OC(C)(C)C)c2nnc([C@H]3C[C@@H](CC(C)C)C3)n2C2CC2)c(C)c1 (mixture of isomers) [Example F-498] |  |  | > 5.52 | > 5.52 |
| Cc1ccc(NC(=O)[C@H]2CCN(C)C[C@@H]2c2nnc(CCCC(C)(C)C)n2C2CC2)c(C)c1 (racemic) [Example F-395] | < 3 | < 3 |  |  |
| Cc1ccc(NC(=O)C[C@H](CCC(=O)O)c2noc(-c3cc(C(F)(F)C4CC4)on3)c2C2CC2)c(Cl)c1 [Example E-73] | < 3 | < 3 |  |  |
| Cc1cc(C(N)=O)ccc1NC(=O)CCc1nnc(CCC(C)C)n1C1CC1 [Example F-157] | > 3 | > 3 |  |  |
| Cc1ccc(NC(=O)C[C@H](Cc2noc(=O)[nH]2)c2noc([C@H]3C[C@@H](CC(C)C)C3)c2C2CC2)c(C)c1 [Example F-640] |  |  | > 5.52 | > 5.52 |
| CC(C)C(F)(F)c1cc(-c2onc([C@@H](CCC(=O)O)CC(=O)Nc3ccc(F)cc3Cl)c2C2CC2)no1 [Example E-61] | < 3 | < 3 |  |  |
